Experimental data reported in patent US11622970B2, “BCL-2 inhibitors and their use as pharmaceuticals” (PRELUDE THERAPEUTICS INCORPORATED, priority 2020, dated 2023).

Target: BCL-2 recombinant protein (Homo sapiens, UniProt P10415)
Assay: Cell free Bcl-2:Bak affinity assay (Bcl-2 Bak), HTRF competition of FAM-Bak peptide
Format: binding
Conditions: 1 μM compound, 4 nM BCL-2 recombinant protein, 100 nM FAM-Bak, read-out: potency (% inhibition at 1 μM)
Protocol: Biological Assays: Cell Free Bcl-2:Bak Affinity Assay (Bcl-2 Bak)
The assay is based on the competition of fluorescently labeled peptide binding to BCL-2 and the binding is monitored by HTRF signals between anti-GST-Tb and FAM-peptide using GST-Tag BCL proteins. Testing compounds were dissolved in DMSO at 10 mM and tested in 10-concentration IC50 mode. The compounds of interest in DMSO were added in 3-fold serial dilution to each well containing 4 nM of BCL-2 recombinant protein, 20 mM K Phosphate, pH 7.5, 50 mM NaCl, 1 mM EDTA, 0.005% Triton X-100, by using acoustic technology (Labcyte echo 550), After 10 minutes incubation at room temperature, 100 nM of FAM-Bak was added and incubated for another 10 minutes before addition of Anti-GST-Tb. The plate was then sealed and further incubated at room temperature for 60 minutes in the dark before reading. Percentage of inhibition was calculated by % inhibition=100×(FDMSO−F)/(FDMSO−FPC), in which FDMSO is DMSO control and FPC is a positive control. IC50 values were determined from dose-response curve by fitting the percent inhibition against compound concentration using GraphPad Prism software.

Chain of BCL-2 recombinant protein (P10415 whole entry): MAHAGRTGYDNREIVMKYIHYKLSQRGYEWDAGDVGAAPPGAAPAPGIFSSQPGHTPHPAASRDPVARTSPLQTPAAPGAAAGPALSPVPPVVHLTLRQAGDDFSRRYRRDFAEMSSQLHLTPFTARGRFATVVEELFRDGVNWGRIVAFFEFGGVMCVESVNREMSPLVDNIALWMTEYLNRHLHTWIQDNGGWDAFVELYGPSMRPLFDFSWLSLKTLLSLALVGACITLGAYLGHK

| Compound | inhibition at 1 µM [%] |
| --- | --- |
| CC1(C)CCC(CN2CCN(c3ccc(S(=O)(=O)NC(=O)c4cccc(C(F)(F)F)n4)cc3)CC2)=C(c2ccc(Cl)cc2)C1 [Example 21, N-([4-[4-[[2-(4-chlorophenyl)-4,4-dimethylcyclohexen-1-yl]methyl]piperazin-1-yl]phenyl]sulfonyl)-6-(trifluoromethyl)pyridine-2-carboxamide] | 50 to 90 |
| CC1(C)CCC(CN2CCN(c3ccc(S(=O)(=O)NC(=O)c4ccncc4C(F)(F)F)cc3)CC2)=C(c2ccc(Cl)cc2)C1 [Example 22, N-([4-[4-[[2-(4-chlorophenyl)-4,4-dimethylcyclohexen-1-yl]methyl]piperazin-1-yl]phenyl]sulfonyl)-3-(trifluoromethyl)pyridine-4-carboxamide] | 50 to 90 |
| CC1(C)CCC(CN2CCN(c3ccc(S(=O)(=O)NC(=O)c4cncc([N+](=O)[O-])c4)cc3)CC2)=C(c2ccc(Cl)cc2)C1 [Example 23, N-([4-[4-[[2-(4-chlorophenyl)-4,4-dimethylcyclohexen-1-yl]methyl]piperazin-1-yl]phenyl]sulfonyl)-5-nitropyridine-3-carboxamide] | 50 to 90 |
| CC1(C)CCC(CN2CCN(c3ccc(S(=O)(=O)NC(=O)c4cc(-c5ccc(F)cc5)no4)cc3)CC2)=C(c2ccc(Cl)cc2)C1 [Example 25, N-([4-[4-[[2-(4-chlorophenyl)-4,4-dimethylcyclohexen-1-yl]methyl]piperazin-1-yl]phenyl]sulfonyl)-3-(4-fluorophenyl)isoxazole-5-carboxamide] | 50 to 90 |
| CC1(C)CCC(CN2CCN(c3ccc(S(=O)(=O)NC(=O)c4ccc5ccsc5n4)cc3)CC2)=C(c2ccc(Cl)cc2)C1 [Example 27, N-([4-[4-[[2-(4-chlorophenyl)-4,4-dimethylcyclohexen-1-yl]methyl]piperazin-1-yl]phenyl]sulfonyl)thieno[2,3-b]pyridine-6-carboxamide] | 50 to 90 |
| CC1(C)CCC(CN2CCN(c3ccc(S(=O)(=O)NC(=O)C4CC=CCC4)cc3)CC2)=C(c2ccc(Cl)cc2)C1 (centres unmarked) [Example 28, N-([4-[4-[[2-(4-chlorophenyl)-4,4-dimethylcyclohexen-1-yl]methyl]piperazin-1-yl]phenyl]sulfonyl)cyclohex-3-ene-1-carboxamide] | < 50 |
| CC1(C)CCC(CN2CCN(c3ccc(S(=O)(=O)NC(=O)C4(c5ccc([N+](=O)[O-])cc5)CC4)cc3)CC2)=C(c2ccc(Cl)cc2)C1 [Example 29, N-([4-[4-[[2-(4-chlorophenyl)-4,4-dimethylcyclohexen-1-yl]methyl]piperazin-1-yl]phenyl]sulfonyl)-1-(4-nitrophenyl)cyclopropane-1-carboxamide] | < 50 |

Further lines, results first:

| inhibition at 1 µM [%] | Compound |
| --- | --- |
| 50 to 90 | CC1(C)CCC(CN2CCN(c3ccc(S(=O)(=O)NC(=O)c4ccccn4)cc3)CC2)=C(c2ccc(Cl)cc2)C1 [Example 24, N-([4-[4-[[2-(4-chlorophenyl)-4,4-dimethylcyclohexen-1-yl]methyl]piperazin-1-yl]phenyl]sulfonyl)pyridine-2-carboxamide] |
| < 50 | Cc1ccc(CC(=O)NS(=O)(=O)c2ccc(N3CCN(CC4=C(c5ccc(Cl)cc5)CC(C)(C)CC4)CC3)cc2)cn1 [Example 26, N-([4-[4-[[2-(4-chlorophenyl)-4,4-dimethylcyclohexen-1-yl]methyl]piperazin-1-yl]phenyl]sulfonyl)-2-(6-methylpyridin-3-yl)acetamide] |
| 50 to 90 | CC1(C)CCC(CN2CCN(c3ccc(S(=O)(=O)NC(=O)Cc4ccccc4F)cc3)CC2)=C(c2ccc(Cl)cc2)C1 [Example 30, N-([4-[4-[[2-(4-chlorophenyl)-4,4-dimethylcyclohexen-1-yl]methyl]piperazin-1-yl]phenyl]sulfonyl)-2-(2-fluorophenyl)acetamide] |
| < 50 | CC1(C)CCC(CN2CCN(c3ccc(S(=O)(=O)NC(=O)CCc4cccnc4)cc3)CC2)=C(c2ccc(Cl)cc2)C1 [Example 31, N-([4-[4-[[2-(4-chlorophenyl)-4,4-dimethylcyclohexen-1-yl]methyl]piperazin-1-yl]phenyl]sulfonyl)-3-(pyridin-3-yl)propanamide] |
